The values that follow come from patent US12215109B2, “Crystal of pyrazolo[3,4-d]pyrimidine” (TAIHO PHARMACEUTICAL CO., LTD., priority 2018, dated 2025).

What all share (assay type): physicochemical
The nature of data set [1]: Thermal stability test (X-ray powder diffraction under heating). The settings on record: XRPD at 25° C., 50° C., elevated to 200° C., then lowered to 25° C. The protocol:
A thermal stability test was conducted on Crystal I and Crystal III obtained in Example and Comparative Example described above. Crystal II was not reproduced, and it was not possible to conduct a thermal stability test.
X-ray powder diffraction measurement was performed at 25° C., and the temperature was elevated to 50° C. over 30 minutes, followed by performing X-ray powder diffraction measurement. The temperature was further elevated to 200° C. at 10° C./10 min, followed by performing X-ray powder diffraction measurement, then the temperature was lowered to 25° C. over 30 minutes, followed by performing X-ray powder diffraction measurement.

The nature of data set [2]: Solid stability test (storage stability; XRPD, HPLC related substances, appearance). The settings on record: for Related substances: HPLC. The method, then:
The storage stability of Crystal I obtained in Example above was examined under the following conditions. • Storage conditions: 40° C./[…] (open system and closed system), 60° C. (closed system), light shielding • Measurement point: 1 month • Storage amount: about 50 mg • Storage container: Brown glass bottle
X-ray powder diffraction measurement of the sample after storage was performed by the above-described method. For a change in mass of related substances (amount of detected substances other than Compound (I)), about 1 mg of the sample was weighed, and dissolved in about 5 mL of a water/acetonitrile mixed liquid (1:1), and 5 μL of the liquid was accurately measured and taken, and analyzed by HPLC in accordance with the following method. • Column: InertSustain C18 HP, 4.6×150 mm, 3 μm • Column temperature: 40° C. • Column flow rate: 0.8 mL/min • Mobile phase: A: 10 mM phosphate buffer (pH 6.8)/acetonitrile (17:3) and B: acetonitrile/methanol (17:3) • Detection UV: 220 nm • Gradient: […]

A short description of data set [3]: Dynamic moisture absorption/desorption test. To be noted: 25° C., humidity 5% RH to 95% RH and back to 5% RH. The method, then: In the test, VTI-SA+(TA Instruments) was used. About 10 mg of crystal I was weighed, and put into a pan. The temperature was elevated at a rate of 1 degree per minute to 60° C. while observing the weight variation per 5 minutes of 0.0100% or less. When the weight varied, this temperature was maintained for a maximum of 5 hours, followed by starting the next step. Thereafter, the temperature was cooled to 25° C., and the humidity was increased from 5% RH to 95% RH, and then decreased to 5% RH. Here, the humidity was increased in increments of 5% RH while observing the weight variation per 5 minutes of 0.00100% or less. When the weight varied, this humidity was maintained for a maximum of 2 hours, followed by starting the next step.

The mark [4] stands for this setting: 40° C./75% RH (closed system), 1 month.
[5] abbreviates: 40° C./75% RH (open system), 1 month.
Setting [6] is: 60° C. (closed system), 1 month.
Setting [7] is: Light shielding (1,200,000 lx · hr).

`C=CC(=O)N1CCC[C@@H](n2nc(C(=O)Nc3ccc(CC(=O)N(C)C)c(C)c3C)c3c(N)ncnc32)C1` [Crystal I, (R)-1-(1-acryloylpiperidin-3-yl)-4-amino-N-(4-(2-(dimethylamino)-2-oxoethyl)-2,3-dimethylphenyl)-1H-pyrazolo[3,4-d]pyrimidine-3-carboxamide]: the “change in crystal form under heating” value in data set [1] was “no change in crystal form”. Further, the Appearance entry in data set [2] (setting [4]), in data set [2] (setting [5]), in data set [2] (setting [6]) and in data set [2] (setting [7]) was “No change” each time. Also, the Related substances in data set [2] (setting [4]), in data set [2] (setting [5]), in data set [2] (setting [6]) and in data set [2] (setting [7]) was under 0.1% in each case. Moreover, in data set [2] (storage 1 month, 40° C./75° RH (open and closed system), 60° C. (closed system), light shielding), the “change in X-ray powder diffraction pattern after storage” value was “no change in X-ray powder diffraction pattern”. In addition, the “hygroscopicity (moisture absorption/desorption isothermal line)” value in data set [3] is recorded as “non-hygroscopic”.
Turning to `C=CC(=O)N1CCC[C@@H](n2nc(C(=O)Nc3ccc(CC(=O)N(C)C)c(C)c3C)c3c(N)ncnc32)C1` [Crystal III, (R)-1-(1-acryloylpiperidin-3-yl)-4-amino-N-(4-(2-(dimethylamino)-2-oxoethyl)-2,3-dimethylphenyl)-1H-pyrazolo[3,4-d]pyrimidine-3-carboxamide], the “change in crystal form under heating” value in data set [1] is given as “changed by heating”.
